The data set can be described thus: HILIC, Waters ACQUITY UPLC BEH Amide, 100 × 2.1 mm, 1.7 µm; A: water + 0.125% formic acid + 10 mM ammonium formate; B: 5% water + 95% acetonitrile + 0.125% formic acid + 10 mM ammonium formate; gradient (min/%B) 0/100 2/100 7.7/70 9.5/40 10.25/30 12.75/100 17/100. As to conditions: stereoisomer not certain.
As to `CC12CC3CC(C)(C1)CC(N)(C3)C2` [Memantine], the LC retention time is 4.24 min.
As for `CN1CCC23c4c5ccc(O)c4OC2C(=O)CCC3(O)C1C5` (stereo not given) [Oxymorphone], the LC retention time was determined as 5.5 min.
Turning to `CC(NC(=O)C(Cc1ccc(O)cc1)NC(=O)CN)C(=O)O` (stereo not drawn) [Gly-Tyr-Ala], the LC retention time stood at 7.89 min.
The same measure for `Cc1cn(C2CC(O)C(COP(=O)(O)O)O2)c(=O)[nH]c1=O` (stereo not given): 8.28 min; for `CC(C)C(=O)C(=O)O` [Ketoisovaleric acid]: 2.84 min; for `NCC(=O)O` [Glycine]: 8.33 min.
`Nc1ccc2cn[nH]c2c1` [6-Aminoindazole]: the LC retention time was found to be 1.26 min.
As for `COCC1OC(n2cc(C)c(=O)[nH]c2=O)CC1O` (stereo not given) [5'-O-Methylthymidine], the LC retention time was found to be 1.46 min.
In the case of `Cc1cn(C2OC(CO)CC2O)c(=O)[nH]c1=O` (stereo not given) [5-Methyl-3-deoxyuridine], the LC retention time stood at 2.6 min.
For `CN(C)C(=N)N=C(N)N` [Metformin], the LC retention time was 5.44 min.
As to `CSCC1OC(n2cnc3c(N)ncnc32)C(O)C1O` (stereo not given) [5'-Methylthioadenosine], the LC retention time was found to be 2.49 min.
In the case of `CN(C)CCC(c1ccc(Cl)cc1)c1ccccn1` (stereo not given) [Chlorpheniramine], the LC retention time was 2.54 min.
In the case of `CCNC(=O)CCC(N)C(=O)O` (stereo not given) [Theanine], the LC retention time came out at 7.66 min.
As for `O=c1[nH]cnc2c1ncn2C1OC(CO)C(O)C1O` (stereo not given) [Inosine], the LC retention time came out at 6.19 min.
With `Cc1cnc(=O)[nH]c1N` [5-Methylcytosine], the LC retention time is 6.62 min.
Take `CN(C)CCC=C1c2ccccc2COc2ccc(CC(=O)O)cc21` [Olopatadine]: the LC retention time turned out to be 4.41 min.
As to `CC(C(O)c1ccc(O)cc1)N1CCC(Cc2ccccc2)CC1` (stereo not given) [Ifenprodil], the LC retention time stood at 3.17 min.
For `CN1C(=O)C(O)CC1c1cccnc1` (stereo not drawn) [trans-3'-Hydroxycotinine], the LC retention time turned out to be 2.02 min.
Consider `CC1(C)SC2C(N=CN3CCCCCC3)C(=O)N2C1C(=O)O` (stereo not given) [Mecillinam], for which the LC retention time was 4.28 min.
Under `CC(NC(CCCN=C(N)N)C(=O)O)C(=O)O` (stereo not given) [Octopine] stands 10.3 min; under `O=C(O)Cc1ccccc1Nc1c(Cl)cccc1Cl` [Diclofenac], 1.08 min; under `NC(N)=NCCCC(=O)O` [4-Guanidinobutyric acid], 7.72 min.
Regarding `CCOC(=O)COc1cc(-c2nn(C)c(OC(F)F)c2Cl)c(F)cc1Cl` [Pyrafluefen-ethyl], the LC retention time stood at 1.02 min.
With `O=c1ncc(F)c[nH]1` [5-Fluro-2-pyrimidone], the LC retention time is 1.77 min.
`O=C(O)CNC(=O)c1ccco1` [N-(2-Furoyl)glycine]: the LC retention time was found to be 4.01 min.
Turning to `O=c1ccn(C2CCC(CO)O2)c(=O)[nH]1` (stereo not given) [2,3-Dideoxyuridine], the LC retention time stood at 1.73 min.
Regarding `c1ccc(-c2ccc(C(c3ccccc3)n3ccnc3)cc2)cc1` (stereo not given) [Bifonazole], the LC retention time stood at 1.19 min.
Under `Nc1ccc(C(=O)O)cc1` [4-Aminobenzoic acid] stands 7.49 min; under `CCCCCCCCCOc1ccc2[nH]cc(CCN)c2c1` [5-Nonyloxytryptamine], 3.4 min.
With `O=C(O)CCc1c[nH]c2ccccc12` [3-Indolepropionic acid], the LC retention time worked out at 1.28 min.
As for `CCC(C)C(NC(=O)C(C)N)C(=O)O` (stereo not given) [Ala-Ile], the LC retention time worked out at 7.83 min.
Under `CCCc1c(OCCCCc2nn[nH]n2)ccc(C(C)=O)c1O` [Tomelukast] stands 1.04 min.
For the compound `CCCCCC(O)CC` (stereo not given) [3-Octanol], the LC retention time was 8.47 min.
With `NC(Cc1ccc(O)cc1)C(=O)NC(Cc1ccc(O)cc1)C(=O)NC(Cc1ccc(O)cc1)C(=O)O` (stereo not drawn) [Tyr-Tyr-Tyr], the LC retention time is 7.09 min.
`COc1ccc(Cc2nccc3cc(OC)c(OC)cc23)cc1OC` [Papaverine]: the LC retention time worked out at 1.54 min.
Regarding `OCc1c[nH]c2ccccc12` [Indole-3-carbinol], the LC retention time was found to be 1.24 min.
As to `CCN(CC)CCN1C(=O)CN=C(c2ccccc2F)c2cc(Cl)ccc21` [Flurazepam], the LC retention time worked out at 2.41 min.
For `CN1CCCCC1CCN1c2ccccc2Sc2ccc(S(C)=O)cc21` (stereo not given) [Mesoridazine], the LC retention time worked out at 4.24 min.
Turning to `Nc1nc2[nH]c(=O)cnc2c(=O)[nH]1` [Isoxanthopterin], the LC retention time came to 6.41 min.
`NC(N)=NCCC(=O)O` [3-Guanidinopropionic acid]: the LC retention time turned out to be 8.15 min.
Under `CNC(C)C(=O)O` (stereo not given) [N-Methylalanine] stands 7.67 min; under `Nc1nnc(-c2cccc(Cl)c2Cl)c(N)n1` [Lamotrigine], 1.98 min.
Regarding `COC1C=COC2(C)Oc3c(C)c(O)c4c(O)c(c5c(c4c3C2=O)=NC2(CCN(CC(C)C)CC2)N=5)NC(=O)C(C)=CC=CC(C)C(O)C(C)C(O)C(C)C(OC(C)=O)C1C` (stereo not given) [Rifabutin], the LC retention time amounted to 2.76 min.
The same measure for `NC(Cc1ccc(O)cc1)C(=O)O` (stereo not given) [Tyrosine]: 7.61 min; for `Cc1ncc(CO)c(CO)c1O` [Pyridoxine]: 3.78 min.
As for `CCOC(=O)N1CCC(=C2c3ccc(Cl)cc3CCc3cccnc32)CC1` [Loratadine], the LC retention time was 1.11 min.
In the case of `CCOC(=O)c1ncn2c1CN(C)C(=O)c1cc(F)ccc1-2` [Flumazenil], the LC retention time came to 1.08 min.
With `O=c1c(-c2ccc(O)cc2)coc2cc(O)cc(O)c12` [4,5,7-Trihydroxyisoflavone], the LC retention time was 1.27 min.
As for `CC(=O)OC(CC(=O)[O-])C[N+](C)(C)C` (stereo not given) [Acetylcarnitine], the LC retention time is 7.19 min.
For the compound `COc1cc2c(=O)c(-c3ccc(O)cc3)coc2cc1O` [Glycitein], the LC retention time is 1.32 min.
On to `Cc1nc2ccccn2c(=O)c1CCN1CCC(C(=O)c2ccc(F)cc2)CC1` [Pirenperone], for which the LC retention time worked out at 3.5 min.
On to `CCOC(=O)C(CCc1ccccc1)NC1CCc2ccccc2N(CC(=O)O)C1=O` (stereo not given) [Benazepril], for which the LC retention time was 1.33 min.
As for `CCCN1CC(CSC)CC2c3cccc4[nH]cc(c34)CC21` (stereo not given) [Pergolide], the LC retention time came to 2.41 min.
For `COc1ccc(C2CNC(=O)C2)cc1OC1CCCC1` (stereo not given) [Rolipram], the LC retention time turned out to be 1.12 min.
On to `NC(=O)c1ccc[n+](C2OC(CO)C(O)C2O)c1` (stereo not given) [Nicotinamide riboside cation], for which the LC retention time was determined as 7.51 min.
As to `CN(C)CCCSc1ccccc1NC(=O)C=Cc1ccccc1` [Cinanserin], the LC retention time came to 2.61 min.
For `CCOP(=O)(OCC)Oc1ccc([N+](=O)[O-])cc1` [Paraoxon], the LC retention time was found to be 1.02 min.
Consider `C=Cc1ccc(O)c(OC)c1` [2-Methoxy-4-vinylphenol], for which the LC retention time stood at 8.71 min.
As for `COc1cc(-c2oc3cc(O)cc(O)c3c(=O)c2OC2OC(CO)C(O)C(O)C2O)cc(OC)c1O` (stereo not given) [Syringetin-3-O-glucoside], the LC retention time came to 4.32 min.
Take `CC(O)(CS(=O)(=O)c1ccc(F)cc1)C(=O)Nc1ccc(C#N)c(C(F)(F)F)c1` (stereo not given) [Bicalutamide]: the LC retention time came out at 0.99 min.
